Literature values in patent publication US8229872B2, “Modeling and control for highly variable and nonlinear systems” (priority 2007, dated 2012).

System: receptors of the neuromuscular junction
Conditions: isolated cat anterior tibialis and sartorius muscles; ref [18]

Structure (SMILES): COc1cc2c3cc1Oc1cc(ccc1O)C[C@@H]1c4c(cc(OC)c(O)c4Oc4ccc(cc4)C[C@@H]3N(C)CC2)CC[N+]1(C)C [tubocurarine]
- receptors that had to be blocked by the antagonist before block was noticeable: 76±5%
- receptors that had to be blocked for near complete blockade: 92±16%
